Experiments:
Assay type in all cases: in vivo
ICR mice [1] = test: Mouse righting reflex test (ED50, sequential method, tail vein bolus); conditions: for ED50: Mus musculus, read-out: ED50 (median effective dose: dose required to cause 50% of the mice to lose the righting reflex); for ED50 / ED50 (median effective dose: dose required to cause 50% of the mice to lose the righting reflex): tail vein bolus within 10 seconds, sequential method, AOT425 software; for Symptoms in test animals in ED50 test: after tail vein administration
Protocol: The ED50 value and LD50 value of the compound of the present invention were measured using a sequential method. The TI (therapeutic index) of the drug was calculated.
(§1) SPF grade ICR mice (Pizhou Oriental Breeding Co., Ltd.), 22-28 g, 15 mice/group. All mice received 3 days of quarantine and acclimation and were transferred from the feeding room to the laboratory for acclimation 1 h prior to the experiment.
(§2) The test compound was dissolved in 20% fat emulsion or purified water to prepare a 5 mg/ml drug liquid.
(§3) During the test, firstly a mouse was dosed at the tail vein, and the bolus injection was completed within 10 seconds. […] Finally, the AOT425 Statpm software was used to calculate the ED50 (median effective dose: the dose required to cause 50% of the mice to lose the righting reflex by the test) and LD50 (median lethal dose: the dose required to cause 50% of the mice to die by the test) values. The formula for TI (therapeutic index) was: TI=LD50/ED50.

[2] = Mouse LD50 test (sequential method, tail vein bolus); conditions: mouse, in vivo, intravenous; ICR mice, tail vein bolus within 10 seconds, sequential method, AOT425 software; read-out: LD50 (median lethal dose: dose required to cause 50% of the mice to die)
Protocol: (§4) The ED50 value and LD50 value of the compound of the present invention were measured using a sequential method. The TI (therapeutic index) of the drug was calculated. The animal symptoms in the experimental process were observed, and the drug effect, safety and side effects of the compound of the present invention were examined.
as §1, §2, §3

ICR mice [3] = test: as above; conditions: TI=LD50/ED50, ICR mice, tail vein
Protocol: as §4, §1, §2, §3

Row | SMILES | ED50 (ICR mice [1]) | Symptoms in test animals in ED50 test (ICR mice [1]) | LD50 [2] | TI (therapeutic index) (ICR mice [3]) | ED50 (median effective dose: dose required to cause 50% of the mice to lose the righting reflex) (ICR mice [1])
1 | CC(C)c1cccc(C(C)C)c1O [Propofol, reference compound] | 12.9 mg/kg | Some animals exhibited body twitching and | 55.9 mg/kg | 4.3 | 
2 | CC(C)c1cccc(C(C)C)c1OCOP(=O)(O)O [Fospropofol sodium, reference compound] | 112 mg/kg |  |  |  | 
3 | CC1COc2c(F)cc(C(C)C3CC3)c(OCOP(=O)([O-])[O-])c21.[Na+].[Na+] (single isomer, unassigned) [Example 10A1, sodium (5-(1-cyclopropyl)-7-fluoro-3-methyl-2,3-dihydrobenzofuran-4-yl) oxymethyl phosphate] |  | The animals' condition was stable after |  |  | 
4 | CC1COc2c(F)cc(C(C)C3CC3)c(O)c21 (single isomer, unassigned) [Example 11A1, 5-(1-cyclopropylethyl)-7-fluoro-3-methyl-2,3-dihydrobenzofuran-4-ol] |  | The animals' condition was stable after |  |  | 4.0 mg/kg
5 | CC1COc2c(F)cc(C(C)C3CC3)c(O)c21 (single isomer, unassigned) [Example 4, 5-(1-cyclopropylethyl)-7-fluoro-3-methyl-2,3-dihydrobenzofuran-4-ol] |  | The animals' condition was stable after | 62.5 mg/kg | 7.0 | 8.9 mg/kg

Source: patent publication US20240336583A1, “BENZO-RING-CONTAINING DERIVATIVE, AND PREPARATION METHOD THEREFOR AND USE THEREOF” (SHUJING BIOPHARMA CO., LTD, priority 2021, published 2024)
